Consider five compounds from BindingDB's records for patent US12331046 (Nimbus Clotho, 2025).

pIC50: −log10 of the molar value. Some results are limits rather than exact numbers.

The experiment has as its target T1, CTP synthase 1 (Homo sapiens, UniProt P17812).
T1 sequence (P17812 whole entry): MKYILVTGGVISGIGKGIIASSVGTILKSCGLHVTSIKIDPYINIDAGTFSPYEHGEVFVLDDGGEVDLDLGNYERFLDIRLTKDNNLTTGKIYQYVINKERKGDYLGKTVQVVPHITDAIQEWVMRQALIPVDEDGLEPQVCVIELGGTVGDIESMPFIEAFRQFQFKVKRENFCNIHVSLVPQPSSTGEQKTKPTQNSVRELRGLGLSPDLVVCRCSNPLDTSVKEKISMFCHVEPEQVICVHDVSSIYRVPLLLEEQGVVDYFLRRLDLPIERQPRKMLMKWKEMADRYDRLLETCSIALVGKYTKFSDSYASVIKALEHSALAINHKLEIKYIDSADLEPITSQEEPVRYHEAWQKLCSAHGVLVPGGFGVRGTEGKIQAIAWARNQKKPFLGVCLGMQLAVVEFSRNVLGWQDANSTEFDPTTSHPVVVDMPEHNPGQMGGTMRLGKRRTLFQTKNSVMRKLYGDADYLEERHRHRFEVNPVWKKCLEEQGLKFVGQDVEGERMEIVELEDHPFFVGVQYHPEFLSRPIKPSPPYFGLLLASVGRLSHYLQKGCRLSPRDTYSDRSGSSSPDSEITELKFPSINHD
The experiment can be described thus: hCTPS1 Biochemical Assay. How it is done: Purified human CTPS1 protein was prepared in 1× assay buffer to the final working protein concentration required for the reaction. A 2.5 uL volume per well of human CTPS1 protein was mixed with 0.1 uL per well of test compound dissolved in DMSO and pre-incubated at 25 degrees C. for 10 minutes. 2.5 uL per well of the reaction precursors ATP (UltraPure ATP from ADP-Glo™ kit) and UTP were then added and pre-incubated for an additional 10 minutes at 25 degrees C. Finally, the reaction was initiated by the addition of 5 uL of the reaction precursors L-glutamine and GTP. The final concentration of all reaction components in the assay: ATP (120 uM), UTP (160 uM), GTP (60 uM), L-Glutamine (100 uM), DMSO (1%), hCTPS1 (25 nM). This mixture was incubated for an appropriate amount of time within the determined linear phase of the reaction at 25 degrees C. under sealed plate conditions with constant agitation at 500 revolutions per minute (rpm). ADP-Glo™ reagent was added for 60 minutes (10 uL per well) and subsequently ADP-Glo™ development reagent was added for 60 minutes (20 uL per well) prior to signal detection in a microplate reader (Envision Multilabel Reader, Perkin Elmer). Following each reagent addition over the course of the assay, assay plates were pulse centrifuged for 1 minute at 1000 rpm.
As a reminder, the pIC50 is −log10 of the IC50, conventionally taken in molar units. Low values mean a large IC50, high ones a small IC50. `CCOc1cncc(-c2ccc(C(=O)NC(C#N)c3cc(NS(=O)(=O)C4CC4)ccn3)cc2)n1` (stereo not given) [US12331046, Compound I-64] gave a pIC50 of over 7.00.

On to `CCOc1cncc(-c2nnc(C(=O)N[C@H](CC)c3cc(NS(=O)(=O)C4CC4)ccn3)s2)n1` [US12331046, Compound I-240], for which the pIC50 was over 7.00.

In turn, `CCc1c[nH]c2ncc(-c3ccc(C(=O)NCc4cc(NS(=O)(=O)C5CC5)ccn4)cc3)cc12` [US12331046, Compound I-38] had a pIC50 of over 7.00.

In turn, `CCOc1cncc(-c2cnc(C(=O)NCc3cc(F)cc(NS(=O)(=O)C4CC4)c3)s2)n1` [US12331046, Compound I-256] had a pIC50 of over 7.00.

Compound `CCOc1cncc(-c2cnc(C(=O)NCc3cccc(NS(=O)(=O)C(F)F)c3)s2)n1` [US12331046, Compound I-61] had a pIC50 of over 7.00.
